Tests used:
[1] = Conductometry: molar conductivity of silver complexes in DMSO; assay type: physicochemical; settings: 1.0 mM in DMSO, calculated as monocarbene (NHC)AgX
Protocol: Since both the neutral monocarbene and the ionic biscarbene form of the complexes may exist in various proportions in the solution, conductometry studies were performed to reveal the dominant structure. The molar conductivity of 1.0 mM solutions of each complex in DMSO was determined after different periods up to 24 h using AgNO3 as 1:1 electrolyte reference (see Table 1). According to the literature, the expected range of molar conductivity for 1:1 electrolytes in DMSO is 35–90 S cm^2 mol^–1.[45],[46]
Conductivity measurements were performed using an Apera Instruments EC9500 conductivity meter. Solutions (as indicated, otherwise 1.0 mM) of all compounds were prepared using freshly distilled DMSO with a specific electrical conductivity of ≤3 × 10^–8 S cm^–1. The conductivities were measured at 25 ± 2 °C immediately after complete dissolution and after 24 h.

[2] = system: E. coli (DSM1116, ATCC 9637); test: microbe, parasite or virus in culture; assay type: cell-based, Escherichia coli; settings: n = 3, MHB; for EC50 / MIC E. coli: mean ± standard error; for MIC E. coli / MIC E. coli (value in brackets): 22 h
Protocol: (§1) The antibacterial effect of the silver NHC complexes and selected ligands was evaluated in two Gram-positive [Enterococcus faecium, methicillin resistant S. aureus, (MRSA)] and in four Gram-negative (Acinetobacter baumannii, Escherichia coli, Klebsiella pneumoniae, and Pseudomonas aeruginosa) pathogenic bacterial strains using broth microdilution assays. The resulting minimal inhibitory concentrations (MICs, Table 2) and EC50 (Table S6) were determined by a curve fitting procedure. Silver nitrate (AgNO3), SSD, and various antibiotics were used as references.
(§2) The following strains of ESKAPE panel were utilized and maintained at 37 °C in MHB (21 g/L Müller Hinton broth, pH 7.4) or TSY (30 g/L trypticase soy broth, 3 g/L yeast extract, pH 7.0–7.2) media: A. baumannii (DSM 30007, ATCC 19606), E. coli (DSM1116, ATCC 9637), K. pneumoniae (DSM 11678, ATCC33495), P. aeruginosa PA7 (DSM 24068) in MHB; E. faecium (DSM 20477, ATCC 19434), and S. aureus MRSA (DSM 11822, ICB 25701) in TSY. MIC values were determined following a standardized protocol in broth microdilution assays. The compounds and reference substances (AgNO3 and SSD) were serially diluted from 64 to 1 μg/mL. Starting inocula of 2–8 × 10^5 CFU/mL in MHB or TSY media at 37 °C were used, and serial dilutions were carried out in 96-well microtiter plates in duplicate. After incubation of the plates for 22 h at 37 °C, the absorbance at 600 nm was measured using The Spark multimode microplate reader (Tecan Trading AG). The MIC values for the tested compounds were determined in three independent experiments and presented in μM with standard errors and also in μg/mL. Amikacin (P. aeruginosa), linezolid (S. aureus), and ciprofloxacin (all other strains) served as positive controls. The MIC and EC50 values were determined by curve fitting with Sigma Plot. To determine the effect of the culture medium on the activity of silver compounds, the assay was performed using MHB, TSY, or DMEM (Gibco). To observe the effect of individual components of TSY medium, antibacterial tests were performed using MHB with addition of tryptone (17 g/L) or yeast extract (3 g/L, both were purchased from Sigma).

[3] = system: P. aeruginosa PA7 (DSM 24068); test: microbe, parasite or virus in culture; assay type: cell-based, Pseudomonas aeruginosa; settings: n = 3, MHB; for MIC P. aeruginosa / EC50: mean ± standard error; for MIC P. aeruginosa / MIC P. aeruginosa (value in brackets): 22 h; for EC50: read-out: EC50 P. aeruginosa
Protocol: as §1, §2

[4] = system: K. pneumoniae (DSM 11678, ATCC33495); test: Broth microdilution antibacterial assay; assay type: cell-based, Klebsiella pneumoniae; settings: n = 3, MHB; for MIC K. pneumoniae / EC50: mean ± standard error; for MIC K. pneumoniae / MIC K. pneumoniae (value in brackets): 22 h; for EC50: read-out: EC50 K. pneumoniae
Protocol: as §1, §2

[5] = system: A. baumannii (DSM 30007, ATCC 19606); test: Broth microdilution antibacterial assay; assay type: cell-based, Acinetobacter baumannii; settings: n = 3, MHB; for MIC A. baumannii / EC50: mean ± standard error; for MIC A. baumannii / MIC A. baumannii (value in brackets): 22 h; for EC50: read-out: EC50 A. baumannii
Protocol: as §1, §2

[6] = system: S. aureus MRSA (DSM 11822, ICB 25701); test: microbe, parasite or virus in culture; assay type: cell-based, methicillin resistant S. aureus; settings: n = 3, TSY; for MIC MRSA / EC50: mean ± standard error; for MIC MRSA / MIC MRSA (value in brackets): 22 h; for EC50: read-out: EC50 MRSA
Protocol: as §1
The importance of the culture medium used in antibacterial assays has been pointed out for antibiotics and in particular for silver.[53]−[55] In our recent studies, tryptic soy yeast (TSY) broth has been used for growing Gram-positive bacteria. Two components thereof, tryptone and yeast extract, have been reported to affect the antibacterial activity of silver nitrate.[55] Moreover, such an effect was also observed for other media containing at least one of those components.[11],[53] […] Silver nitrate served as a reference, and three different growth media were studied, namely, Müller-Hinton Broth (MHB, commonly used for Gram-negative bacteria), TSY broth (commonly used for Gram-positive bacteria), and DMEM supplemented with 10% FCS (commonly used for growth of mammalian and human cells).
as §2

[7] = system: E. faecium (DSM 20477, ATCC 19434); test: Broth microdilution antibacterial assay; assay type: cell-based, Enterococcus faecium; settings: n = 3, TSY; for MIC E. faecium / EC50: mean ± standard error; for MIC E. faecium / MIC E. faecium (value in brackets): 22 h; for EC50: read-out: EC50 E. faecium
Protocol: as §1, §2

Caco-2 cells = settings: read-out: Cytotoxicity IC50 Caco-2; 24 h, almost confluent cell layers, highest concentration 100 μM
Protocol: Besides the antimicrobial effects, the toxic effects of silver ions have to be considered.[10],[12] As a primary evaluation of the cell toxicity triggered by silver NHC complexes, almost confluent cell layers of CaCo-2 cells were grown and challenged for 24 h with the silver complexes and also with the silver reference compounds AgNO3 and SSD (see Figure 6).
Caco-2 cells were grown as almost confluent monolayers in 96-well plates. The complexes were dissolved in wells of 96-well plates as stock solutions in DMSO (0.2% v/v) diluted with DMEM cell culture medium, which was supplemented with 10% fetal calf serum and 50 mg/L gentamicin. The cell layers were incubated with the drug containing media for 24 h at 37 °C/5% CO2 in an incubator. The cell viability was determined using crystal violet (0.02%) staining and was calculated as percentage of an untreated control. Results were obtained in three independent experiments.

[8] = system: P. aeruginosa (PA 14) biofilm; test: Inhibition of biofilm formation, crystal violet staining; assay type: cell-based, Pseudomonas aeruginosa; settings: for smallest active concentration for biofilm inhibition: concentration at which the % inhibition was found; for biofilm inhibition: ± SD, n = 4, at the respective smallest active concentration, 24 h
From the text: Silver and its complexes can strongly affect the growth of biofilms.[56]−[58] In view of the promising activity against Gram-negative bacteria as mentioned above, we evaluated the inhibiting effect of the silver complexes on biofilm production by P. aeruginosa by a method based on crystal violet staining (Table 4 and Figure S14). Complexes 3a–c and 4a–c were selected for the test based on the results of solubility, stability, and antibacterial screening. […] The lower activity of 3c might be explained by its lower kinetic solubility in the aqueous environment (see Figure 4).
The antibiofilm activity was determined according to a literature method.[73] A 1 mL aliquot of P. aeruginosa (PA 14) was taken from −20 °C stock, incubated in 25 mL LB medium (Luria–Bertani Broth) in a 250 mL flask, and kept at 37 °C at 100 rpm overnight. The optical density at 600 nm (OD600) of the culture solution was adjusted to match the turbidity of a 0.1 McFarland standard in M63 medium.[74] Selected compounds were mixed with 150 μL of bacterial solution in U-bottom 96 well plates to the final respective concentrations (25–0.2 μg/mL). The plates were further incubated at 37 °C for 24 h while shaking at 150 rpm. Afterward, the plates were rinsed once with 150 μL of PBS buffer, and the biofilms were stained using 150 μL of crystal violet (0.1%) staining at room temperature for 15 min and then rinsed once with PBS buffer. After rinsing, 150 μL of ethanol (95%) was added, and the absorbance was quantified using a plate reader (Synergy 2, BioTek, Santa Clara, USA) at 550 nm. The resulting antibiofilm activity is presented as percentage of inhibition at the respective smallest active concentration in μM with standard deviation (SD) of two repeats with duplicates. Myxovalargin A and DMSO (2.5%) were used as the positive and negative controls, respectively.

Cn1[c](=[Ag][I])n(Cc2ccccn2)c2ccccc21 [1c, Iodido (1-Methyl-3-(pyridin-2-ylmethyl)-benzimidazol-2-ylidene) Silver(I)]
Molar conductivity ΛM ([1]; 1 h after dissolution): 7.82 S cm^2 mol^–^1 | Molar conductivity ΛM ([1]; 24 h after dissolution): 8.13 S cm^2 mol^–^1 | EC50 [2]: 6.4 ± 1.1 µM | MIC E. coli [2]: 11.6 ± 2.9 µM | MIC E. coli (value in brackets) [2]: 5 µg/mL | MIC P. aeruginosa [3]: 14.6 ± 2.9 µM | EC50 [3]: 5 ± 0.5 µM | MIC P. aeruginosa (value in brackets) [3]: 7 µg/mL | MIC K. pneumoniae [4]: 5.1 ± 1.9 µM | EC50 [4]: 2 ± 0.2 µM | MIC K. pneumoniae (value in brackets) [4]: 2 µg/mL | MIC A. baumannii [5]: 8.7 ± 0.0 µM | EC50 [5]: 4.1 ± 0.4 µM | MIC A. baumannii (value in brackets) [5]: 4 µg/mL | MIC MRSA [6]: > 140 µM | EC50 [6]: > 140 µM | MIC MRSA (value in brackets) [6]: > 64 µg/mL | MIC E. faecium [7]: > 140 µM | EC50 [7]: > 140 µM | MIC E. faecium (value in brackets) [7]: > 64 µg/mL | IC50 (Caco-2 cells): > 100 µM

CCn1[c](=[Ag][I])n(Cc2ccccn2)c2ccccc21 [2c, Iodido (1-Ethyl-3-(pyridin-2-ylmethyl)-benzimidazol-2-ylidene) Silver(I)]
Molar conductivity ΛM ([1]; 1 h after dissolution): 6.98 S cm^2 mol^–^1 | Molar conductivity ΛM ([1]; 24 h after dissolution): 6.28 S cm^2 mol^–^1 | EC50 [2]: 12.8 ± 1.1 µM | MIC E. coli [2]: 16.9 ± 0.0 µM | MIC E. coli (value in brackets) [2]: 8 µg/mL | MIC P. aeruginosa [3]: 45.2 ± 11.3 µM | EC50 [3]: 14.2 ± 0.8 µM | MIC P. aeruginosa (value in brackets) [3]: 21 µg/mL | MIC K. pneumoniae [4]: 11.3 ± 2.8 µM | EC50 [4]: 5.9 ± 1.7 µM | MIC K. pneumoniae (value in brackets) [4]: 5 µg/mL | MIC A. baumannii [5]: 8.5 ± 0.0 µM | EC50 [5]: 2.9 ± 0.5 µM | MIC A. baumannii (value in brackets) [5]: 4 µg/mL | MIC MRSA [6]: > 136 µM | EC50 [6]: > 136 µM | MIC MRSA (value in brackets) [6]: > 64 µg/mL | MIC E. faecium [7]: > 136 µM | EC50 [7]: > 136 µM | MIC E. faecium (value in brackets) [7]: > 64 µg/mL | IC50 (Caco-2 cells): > 100 µM

COCCn1[c]([Ag][Cl])[n+](Cc2ccccn2)c2ccccc21 [4a]
Molar conductivity ΛM ([1]; 1 h after dissolution): 3.38 S cm^2 mol^–^1 | Molar conductivity ΛM ([1]; 24 h after dissolution): 3.01 S cm^2 mol^–^1 | EC50 [2]: 31.1 ± 1.8 µM | MIC E. coli [2]: 39.0 ± 0.0 µM | MIC E. coli (value in brackets) [2]: 16 µg/mL | MIC P. aeruginosa [3]: 26.0 ± 6.5 µM | EC50 [3]: 9.6 ± 0.3 µM | MIC P. aeruginosa (value in brackets) [3]: 11 µg/mL | MIC K. pneumoniae [4]: 9.74 ± 0.0 µM | EC50 [4]: 5.2 ± 0.1 µM | MIC K. pneumoniae (value in brackets) [4]: 4 µg/mL | MIC A. baumannii [5]: 16.2 ± 3.2 µM | EC50 [5]: 1.9 ± 0.4 µM | MIC A. baumannii (value in brackets) [5]: 7 µg/mL | MIC MRSA [6]: 156 ± 0.0 µM | EC50 [6]: 85.7 ± 0.6 µM | MIC MRSA (value in brackets) [6]: 64 µg/mL | MIC E. faecium [7]: 156 ± 0.0 µM | EC50 [7]: 123 ± 6.1 µM | MIC E. faecium (value in brackets) [7]: 64 µg/mL | smallest active concentration for biofilm inhibition [8]: 7.6 µM | biofilm inhibition [8]: 71 ± 3%

COCCn1[c](=[Ag][Br])n(Cc2ccccn2)c2ccccc21 [4b, Bromido (1-(2-Methoxyethyl)-3-(pyridin-2-ylmethyl)-benzimidazol-2-ylidene) Silver(I)]
Molar conductivity ΛM ([1]; 1 h after dissolution): 5.11 S cm^2 mol^–^1 | Molar conductivity ΛM ([1]; 24 h after dissolution): 5.08 S cm^2 mol^–^1 | EC50 [2]: 59.2 ± 4.3 µM | MIC E. coli [2]: 70.3 ± 0.0 µM | MIC E. coli (value in brackets) [2]: 32 µg/mL | MIC P. aeruginosa [3]: 23.4 ± 5.9 µM | EC50 [3]: 8.6 ± 1.1 µM | MIC P. aeruginosa (value in brackets) [3]: 11 µg/mL | MIC K. pneumoniae [4]: 17.6 ± 0.0 µM | EC50 [4]: 9.8 ± 1 µM | MIC K. pneumoniae (value in brackets) [4]: 8 µg/mL | MIC A. baumannii [5]: 11.7 ± 2.9 µM | EC50 [5]: 2.1 ± 0.1 µM | MIC A. baumannii (value in brackets) [5]: 5 µg/mL | MIC MRSA [6]: 141 ± 0.0 µM | EC50 [6]: 78.3 ± 2 µM | MIC MRSA (value in brackets) [6]: 64 µg/mL | MIC E. faecium [7]: 141 ± 0.0 µM | EC50 [7]: 120 ± 0.8 µM | MIC E. faecium (value in brackets) [7]: 64 µg/mL | smallest active concentration for biofilm inhibition [8]: 6.8 µM | biofilm inhibition [8]: 70 ± 5%

myxovalargin A [reference compound]
smallest active concentration for biofilm inhibition [8]: 18.6 µM | biofilm inhibition [8]: 68 ± 0%

From paper PMC11091889, “Silver Organometallics that are Highly Potent Thioredoxin and Glutathione Reductase Inhibitors: Exploring the Correlations of Solution Chemistry with the Strong Antibacterial Effects” (ACS Infectious Diseases, 2024)
